Test systems include SK-OV-3; HOP-62; UACC-257; SR; NCI-H226; SK-MEL-2; LXFL 529; SN12C; EKVX; SW-620; NCI-H23; HCT-15; MOLT-4; COLO 205; CCRF-CEM; A498; RPMI-8226.
Holding throughout (assay): inhibition of tumour cell growth, NCI panel, 48 h

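Method: 48-hour compound exposure of cells in 96-well plates, five concentrations, linear interpolation of endpoints. At the GI50, growth is halved.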 Activity calls are given as the source filed them. No stated cut-off is given here; in the data, active = GI50 up to about 1.1 µM and inactive = higher.

Consider `O=C1C2=C(SCCS2)C(=O)c2ccccc21`, for which the GI50 is 1.73 µM (inactive) in the experiment with SK-OV-3; 1.56 µM (inactive) in the experiment with HOP-62; 1.95 µM (inactive) in the experiment on UACC-257; 1.2 µM (inactive) with SR; 2.08 µM (inactive) in the experiment on NCI-H226; 1.99 µM (inactive) in the experiment on SK-MEL-2. Also, the GI50 was 1.64 µM (inactive) with LXFL 529; 1.95 µM (inactive) in the experiment on SN12C; 1.39 µM (inactive) in the experiment on EKVX; 2.11 µM (inactive) in the experiment on SW-620; 1.85 µM (inactive) in the experiment with NCI-H23; 1.7 µM in the experiment with HCT-15. Further, the GI50 in the experiment with MOLT-4 is 2.23 µM (inactive); with COLO 205 it was 1.61 µM (inactive); with CCRF-CEM, 0.783 µM (active); with A498, 2.03 µM (inactive); with RPMI-8226 it was 1.79 µM (inactive).

On to `CSc1ccc(Cc2cc(C(C)(C)C)cc(C(C)(C)C)c2O)cc1`, for which the GI50 in the experiment with SK-OV-3 was 27 µM (inactive); in the experiment with HOP-62, 20.6 µM (inactive); with UACC-257, 14.7 µM (inactive); in the experiment with SR it was 8.75 µM (inactive); with SK-MEL-2, 3.88 µM (inactive); in the experiment with LXFL 529 it was 13.9 µM (inactive). The GI50 with SN12C is 15.1 µM (inactive); in the experiment on EKVX, 18.2 µM (inactive); in the experiment with SW-620, 16.1 µM (inactive); in the experiment on NCI-H23 it was 14.5 µM (inactive); with HCT-15 it was 14 µM; in the experiment on MOLT-4, 8.07 µM (inactive). Moreover, the GI50 in the experiment with CCRF-CEM was 15.5 µM (inactive); with A498 it was 15.6 µM (inactive); in the experiment on RPMI-8226, 4.45 µM (inactive).

Turning to `Cc1ccc(S(=O)(=O)N/N=C(\CCN2CCCC2)CC(c2ccccc2)c2c(O)c3ccccc3oc2=O)cc1` (centres undefined), the GI50 with SK-OV-3, in the experiment with HOP-62, with UACC-257, with SR, in the experiment with NCI-H226 and with SK-MEL-2 was > 100 µM (inactive) throughout. The GI50 is > 100 µM (inactive) in the experiment on LXFL 529; > 100 µM (inactive) in the experiment on SN12C; > 100 µM (inactive) in the experiment with EKVX; 49.5 µM (inactive) in the experiment on SW-620; > 100 µM (inactive) in the experiment on NCI-H23; over 100 µM in the experiment on HCT-15. Moreover, the results for the GI50 in the experiment on CCRF-CEM, in the experiment on A498 and in the experiment with RPMI-8226 were 95.5 µM (inactive), > 100 µM (inactive) and > 100 µM (inactive), respectively.

As to `CC(C)(C)C1=Cc2cc3cc(C(C)(C)C)[nH]c(=O)c3cc2S(=O)(=O)N1`, the GI50 in the experiment with SK-OV-3 is 31.2 µM (inactive); with HOP-62 it was 22.3 µM (inactive); with UACC-257, 25.1 µM (inactive); with SR, 23.7 µM (inactive); in the experiment with NCI-H226, 19.9 µM (inactive); in the experiment on SK-MEL-2, 18.7 µM (inactive). For the same molecule, the GI50 with LXFL 529 is 25.2 µM (inactive); in the experiment with SN12C it was 42.7 µM (inactive); with EKVX it was 17.3 µM (inactive); in the experiment on SW-620 it was 21 µM (inactive); in the experiment on NCI-H23 it was 29.9 µM (inactive); in the experiment with MOLT-4 it was 28.1 µM (inactive). For the same molecule, the GI50 was 21.5 µM (inactive) in the experiment with COLO 205, 26.6 µM (inactive) in the experiment on CCRF-CEM, 53.2 µM (inactive) in the experiment with A498 and 30.3 µM (inactive) in the experiment on RPMI-8226.

Consider `CCOC(=O)/C(C(=O)c1ccccc1)=C1\N[C@H](C(=O)OCC)CS1`, for which the GI50 with HOP-62, with UACC-257, in the experiment on SR, in the experiment on NCI-H226, with SK-MEL-2 and in the experiment with LXFL 529 was > 100 µM (inactive) each time. Besides, the GI50 in the experiment on SN12C was > 100 µM (inactive); in the experiment with EKVX, > 100 µM (inactive); with SW-620, > 100 µM (inactive); with NCI-H23 it was > 100 µM (inactive); in the experiment with HCT-15 it was over 100 µM; in the experiment with MOLT-4, > 100 µM (inactive). Moreover, the GI50 in the experiment with COLO 205, in the experiment on CCRF-CEM and in the experiment on RPMI-8226 was > 100 µM (inactive) throughout.

Regarding `CC1CC(c2ccc(Cl)cc2)=Nc2ccccc2S1` (centres undefined), the GI50 in the experiment on SK-OV-3, in the experiment with HOP-62, in the experiment with UACC-257, with SR, with NCI-H226 and in the experiment on SK-MEL-2 was > 100 µM (inactive) in each case. Further, the GI50 is > 100 µM (inactive) in the experiment with LXFL 529; > 100 µM (inactive) in the experiment on SN12C; > 100 µM (inactive) with EKVX; > 100 µM (inactive) in the experiment with SW-620; > 100 µM (inactive) with NCI-H23; over 100 µM in the experiment on HCT-15. For the same molecule, the GI50 in the experiment with MOLT-4, in the experiment on COLO 205, in the experiment on CCRF-CEM, with A498 and in the experiment with RPMI-8226 was > 100 µM (inactive) each time.

`O=C(CCC(=O)Nc1ccc(Cl)cc1)CC(=O)c1ccc(F)cc1`: the GI50 in the experiment on SK-OV-3, in the experiment with HOP-62, in the experiment on UACC-257, in the experiment on SR, with NCI-H226 and in the experiment with SK-MEL-2 was > 100 µM (inactive) in each case. The GI50 with LXFL 529 is > 100 µM (inactive); in the experiment with SN12C, > 100 µM (inactive); with SW-620, > 100 µM (inactive); with NCI-H23 it was > 100 µM (inactive); in the experiment on HCT-15, over 100 µM; with MOLT-4, > 100 µM (inactive). Further, the GI50 in the experiment with COLO 205 and in the experiment on RPMI-8226 was > 100 µM (inactive) throughout.

As to `O=C(O)CCc1nn2c(nc1=O)sc1ccc3ccccc3c12`, the GI50 in the experiment on SK-OV-3, in the experiment on HOP-62, in the experiment on UACC-257, in the experiment on SR, in the experiment on NCI-H226 and with LXFL 529 was > 100 µM (inactive) throughout. Moreover, the GI50 in the experiment with SN12C was > 100 µM (inactive); in the experiment with EKVX, > 100 µM (inactive); with SW-620, > 100 µM (inactive); in the experiment with NCI-H23, > 100 µM (inactive); with HCT-15, over 100 µM; in the experiment on MOLT-4, > 100 µM (inactive). The GI50 in the experiment on COLO 205, with CCRF-CEM and with RPMI-8226 was > 100 µM (inactive) throughout.

For `COC1OC(OC)C2C(c3c(C)cc(C)cc3C)=NOC12` (centres undefined), the GI50 with SK-OV-3 was > 100 µM (inactive); with HOP-62, 2.13 µM (inactive); in the experiment with UACC-257, > 100 µM (inactive); in the experiment with SR, > 100 µM (inactive); in the experiment with NCI-H226, > 100 µM (inactive); with SK-MEL-2, > 100 µM (inactive). The GI50 with LXFL 529 was > 100 µM (inactive); in the experiment with EKVX, > 100 µM (inactive); in the experiment with SW-620 it was > 100 µM (inactive); in the experiment with NCI-H23, > 100 µM (inactive); in the experiment with HCT-15 it was over 100 µM; in the experiment on MOLT-4, > 100 µM (inactive). In addition, the GI50 in the experiment on COLO 205, in the experiment on CCRF-CEM and in the experiment on RPMI-8226 was > 100 µM (inactive) each time.

On to `O=C(/C=C/c1ccc(-c2ccccc2)cc1)c1ccccc1`, for which the GI50 with SK-OV-3 was 23.7 µM (inactive); with UACC-257, 32.4 µM (inactive); in the experiment with SR, 12.7 µM (inactive); in the experiment with NCI-H226, 22.1 µM (inactive); in the experiment with SK-MEL-2, 12.7 µM (inactive); with LXFL 529, 17.6 µM (inactive). The GI50 with SN12C is 30.4 µM (inactive); with EKVX it was 23.3 µM (inactive); in the experiment with SW-620 it was 20.7 µM (inactive); with NCI-H23, 20.1 µM (inactive); with HCT-15 it was 17.7 µM; in the experiment on MOLT-4, 46.9 µM (inactive). In addition, the GI50 in the experiment on COLO 205 was 22.3 µM (inactive); with CCRF-CEM, 90.4 µM (inactive); in the experiment with A498 it was 20 µM (inactive); in the experiment with RPMI-8226, 19.5 µM (inactive).

For the molecule `CCC/C(=N/NC(=O)C(N)=O)C(CC)C(=O)CCC(=O)N(Cc1ccccc1)Cc1ccccc1` (centres undefined), the GI50 in the experiment on SK-OV-3, with HOP-62, with UACC-257, with SR, in the experiment with NCI-H226 and in the experiment on SK-MEL-2 was > 100 µM (inactive) in each case. In addition, the GI50 in the experiment with LXFL 529 is > 100 µM (inactive); in the experiment on SN12C, > 100 µM (inactive); in the experiment on EKVX it was > 100 µM (inactive); with SW-620, > 100 µM (inactive); in the experiment on NCI-H23, > 100 µM (inactive); in the experiment with HCT-15 it was over 100 µM. In addition, the GI50 in the experiment on MOLT-4, in the experiment on COLO 205, with CCRF-CEM, in the experiment with A498 and with RPMI-8226 was > 100 µM (inactive) in each case.

Take `Cc1cccc2c(=O)cc(-c3ccccc3)[nH]c12`: the GI50 was 3.64 µM (inactive) with HOP-62; 5.22 µM (inactive) in the experiment with UACC-257; 6.93 µM (inactive) in the experiment on SR; 20.2 µM (inactive) in the experiment with NCI-H226; 4.6 µM (inactive) in the experiment on SK-MEL-2; 4.61 µM (inactive) in the experiment with LXFL 529. In addition, the GI50 in the experiment with SN12C is 5.42 µM (inactive); in the experiment with EKVX, 46.2 µM (inactive); in the experiment on SW-620, 2.6 µM (inactive); with NCI-H23 it was 4.91 µM (inactive); in the experiment with HCT-15, 4.23 µM; in the experiment with MOLT-4 it was 4.54 µM (inactive). Besides, the GI50 is 4.36 µM (inactive) in the experiment with COLO 205, 3.62 µM (inactive) with CCRF-CEM, 5.3 µM (inactive) in the experiment with A498 and 5.4 µM (inactive) in the experiment on RPMI-8226.

In the case of `COc1ccc2c3c([nH]c2c1[N+](=O)[O-])C(C)=NCC3`, the GI50 with HOP-62 is > 100 µM (inactive); with UACC-257 it was > 100 µM (inactive); in the experiment on SR, 40.4 µM (inactive); in the experiment with NCI-H226, 51.8 µM (inactive); with SK-MEL-2, > 100 µM (inactive); with LXFL 529, > 100 µM (inactive). The GI50 was 80.7 µM (inactive) in the experiment with SN12C; > 100 µM (inactive) with EKVX; 53.1 µM (inactive) in the experiment with SW-620; > 10 µM (inactive) in the experiment with NCI-H23; over 100 µM in the experiment on HCT-15; 30.8 µM (inactive) with MOLT-4. The GI50 is 15.2 µM (inactive) with COLO 205, 93.5 µM (inactive) in the experiment on CCRF-CEM, 18.8 µM (inactive) in the experiment with A498 and 39.7 µM (inactive) in the experiment on RPMI-8226.

The values are drawn from ChEMBL document CHEMBL1201862, “PubChem BioAssay data set” (2004).
